These results are taken from ChEMBL document CHEMBL4425117 (Bioorg Med Chem Lett, 2016).

Structures are written as SMILES. A value given as a limit tells only on which side of the number the result lay.

Assay [1] concerns the target T1, Endothelin-1 receptor (Homo sapiens, UniProt P25101).
T1 sequence (P25101 whole entry): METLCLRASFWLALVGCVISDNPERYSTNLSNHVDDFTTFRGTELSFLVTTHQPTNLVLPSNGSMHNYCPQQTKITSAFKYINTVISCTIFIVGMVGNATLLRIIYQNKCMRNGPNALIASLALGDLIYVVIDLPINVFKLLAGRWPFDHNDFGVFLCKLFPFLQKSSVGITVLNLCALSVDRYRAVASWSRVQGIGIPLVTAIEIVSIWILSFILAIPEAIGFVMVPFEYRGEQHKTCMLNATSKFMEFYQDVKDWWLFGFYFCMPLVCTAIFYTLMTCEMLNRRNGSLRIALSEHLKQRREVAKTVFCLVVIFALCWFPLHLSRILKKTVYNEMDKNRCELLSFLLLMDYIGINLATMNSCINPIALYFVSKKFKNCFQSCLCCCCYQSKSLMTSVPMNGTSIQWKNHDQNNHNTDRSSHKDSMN
Briefly: Displacement of [125I]-ET-1 from human ETA receptor expressed in CHO cell membranes after 2 hrs by scintillation counting. In general terms: Loss of bound radioactivity is the signal in a displacement assay; it reports binding, not function.

The target of assay [2] is T2, Endothelin receptor type B (Homo sapiens, UniProt P24530).
T2 sequence (P24530 whole entry): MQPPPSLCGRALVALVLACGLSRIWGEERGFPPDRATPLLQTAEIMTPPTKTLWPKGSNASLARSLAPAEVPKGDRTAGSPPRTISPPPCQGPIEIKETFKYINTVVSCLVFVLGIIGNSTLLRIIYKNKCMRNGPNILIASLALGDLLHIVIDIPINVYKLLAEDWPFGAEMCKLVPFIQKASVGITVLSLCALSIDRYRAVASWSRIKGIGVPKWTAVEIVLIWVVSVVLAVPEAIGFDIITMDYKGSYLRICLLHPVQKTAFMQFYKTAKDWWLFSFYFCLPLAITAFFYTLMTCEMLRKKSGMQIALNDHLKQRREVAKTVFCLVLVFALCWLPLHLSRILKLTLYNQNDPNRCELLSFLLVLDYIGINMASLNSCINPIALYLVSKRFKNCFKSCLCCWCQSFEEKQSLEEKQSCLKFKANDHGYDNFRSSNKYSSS
The experiment in a line: Displacement of [125I]-ET-1 from human ETB receptor expressed in CHO cell membranes after 2 hrs by scintillation counting.

By IC50 is commonly meant the concentration at which inhibition is half-maximal. Read a high IC50 as weaker potency in that assay. As for `CC#CCOc1nc(-c2ccnc(-c3nnn[nH]3)c2)nc(NS(=O)(=O)c2ccc(C(C)(C)C)cc2)c1Oc1ccccc1OC`, the IC50 came out at 33 nM in assay [1] and 29 nM in assay [2].
On the same counts, the results for `COc1ccccc1Oc1c(NS(=O)(=O)CCc2cccs2)nc(N2CCOCC2)nc1OCCOC(=O)Nc1ccccn1` are 1 nM and 100 nM.
In assay [1], `Cc1ccc(-c2c(NS(=O)(=O)/C=C/c3ccccc3)ncnc2OCCOc2ncc(Br)cn2)cc1` returned a half-maximal inhibitory concentration (IC50) of 2 nM.
`COc1ccccc1Oc1c(NS(=O)(=O)c2ccc(C)cn2)nc(-c2ccnc(-c3noc(=S)[nH]3)c2)nc1OCC1CCCO1` (stereo not given): the IC50 came out at 6 nM in assay [1] and 288 nM in assay [2].
What is called Ki is a dissociation constant, usually derived from enzyme kinetics or from competition with a known ligand. A lower Ki goes with higher affinity. Consider `COc1cc(OC)nc(O[C@H](C(=O)O)C(OC)(c2ccccc2)c2ccccc2)n1`, for which the Ki in assay [1] stood at 6 nM; in assay [2], 371 nM.
With `CCCNS(=O)(=O)Nc1ncnc(OCCOc2ncc(SC)cn2)c1-c1ccc(Cl)cc1`, the half-inhibitory concentration (IC50) in assay [1] came out at 1.5 nM; in assay [2] it was 686 nM.
On the same counts, the results for `CCCNS(=O)(=O)Nc1ncnc(OCCOc2ncc(SC)cn2)c1Oc1ccccc1OC` are 9.4 nM and 315 nM.
On the same counts, the results for `Cc1ccc(C2=C(C(=O)O)C(c3ccc4c(c3)OCO4)Oc3ccc(OC(C)C)cc32)s1` (stereo not given) are 1 nM and 1800 nM.
For the compound `CCCc1nc(C)ccc1O[C@@H](C(=O)NS(=O)(=O)c1ccc(C(C)C)cc1)c1ccc2c(c1)OCO2`, the Ki was 0.11 nM in assay [1] and 25 nM in assay [2].
In assay [1], `O=C(O)CCNS(=O)(=O)Nc1ncnc(OCCOc2ncc(Br)cn2)c1-c1ccc(Br)cc1` yielded a half-maximal inhibitory concentration (IC50) of 0.7 nM.
`CNS(=O)(=O)Nc1ncnc(OCCOc2ncc(SC)cn2)c1-c1ccc(Br)cc1`: the IC50 in assay [1] was determined as 2 nM; in assay [2] it was 290 nM.
In the case of `COc1nc(C)cnc1NS(=O)(=O)c1cccnc1-c1ccc(-c2nnco2)cc1` [ZIBOTENTAN], the IC50 in assay [2] was > 100 nM.
Take `CCCc1nc(SC2CCC(CC(=O)O)CC2)c(C(=O)O)n1Cc1cc2c(cc1Cl)OCO2` (stereo not given): the IC50 in assay [1] was 1.1 nM. That is a single-digit nanomolar value.
As to `CCCNS(=O)(=O)Nc1ncnc(OCCOc2ncc(SC)cn2)c1Oc1cccc(OC)c1`, the IC50 in assay [1] was found to be 1.4 nM; in assay [2], 90 nM.
On to `CCCNS(=O)(=O)Nc1ncnc(OCCOc2ncc(Br)cn2)c1Oc1ccccc1OC`, for which the IC50 in assay [1] came out at 15.4 nM; in assay [2], 1430 nM.
On the same counts, the results for `COc1ccc(Cl)c(Oc2c(NS(C)(=O)=O)ncnc2OCCOc2ncc(S(C)(=O)=O)cn2)c1` are 3 nM and 542 nM.
`CCCNS(=O)(=O)Nc1ncnc(OCCOc2ncc(OC)cn2)c1-c1ccc(Br)cc1`: the figures for the IC50 in assay [1] and in assay [2] were 2.4 nM and 516 nM, respectively.
Consider `CNS(=O)(=O)Nc1ncnc(OCCOc2ncc(SC)cn2)c1-c1ccc(Cl)cc1`, for which the IC50 came to 3.3 nM in assay [1] and 555 nM in assay [2].
On the same counts, the results for `CCCNS(=O)(=O)Nc1ncnc(OCCOc2ncc(SC)cn2)c1-c1ccc(Br)cc1` are 0.1 nM and 82 nM.
With `Cc1ccc(=O)n([C@@H](C(=O)NS(=O)(=O)c2ccc(C(C)C)cc2)c2ccc3c(c2)OCO3)n1`, the IC50 in assay [1] is 29 nM; in assay [2], 3.5 nM.
For the compound `COC(c1ccccc1)(c1ccccc1)[C@H](Oc1nc(C)cc(C)n1)C(=O)O` [AMBRISENTAN], the IC50 in assay [1] was determined as 1 nM.
Consider `CCCCNS(=O)(=O)Nc1ncnc(OCCOc2ncc(SC)cn2)c1-c1ccc(Br)cc1`, for which the IC50 in assay [1] turned out to be 0.3 nM; in assay [2] it was 63 nM.
Compound `CCNS(=O)(=O)Nc1ncnc(OCCOc2ncc(SC)cn2)c1-c1ccc(Br)cc1` yielded a concentration for half-maximal inhibition (IC50) in assay [1] of 0.7 nM. That is a sub-nanomolar value.
As to `CCCCNS(=O)(=O)Nc1ncnc(OCCOc2ncc(OC)cn2)c1-c1ccc(Br)cc1`, the 50% inhibitory concentration (IC50) came to 0.5 nM in assay [1] and 210 nM in assay [2].
In assay [1], `CCCCNS(=O)(=O)Nc1ncnc(OCCOc2ncc(SC)cn2)c1-c1ccc(Cl)cc1` had an IC50 of 0.3 nM. This lies in the sub-nanomolar range.
Regarding `COc1cnc(OCCOc2nc(-c3ccncc3)nc(NS(=O)(=O)NCc3ccccc3)c2-c2ccc(Cl)cc2)nc1`, the results for the IC50 in assay [1] and in assay [2] were 2 nM and 569 nM, respectively.
